Measurements published in US20220348592A1, “FUSED HETEROCYCLIC DERIVATIVES” (Janssen Sciences Ireland Unlimited Company, priority 2019, published 2022).

What was measured:
[1] = test system: HBV; assay: Anti-HBV activity: intracellular HBV DNA by real-time PCR in HepG2.117 cell line; format: cell-based, Hepatitis B virus; settings: Hepatitis B virus, 72 h; HepG2.117 cells, 3 days of treatment, intracellular HBV DNA by real-time PCR, mean value; read-out: HBV-AVE-HepG2.117 EC50 (μM, mean value)
How it was run: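 HepG2.117 cells, a Tet-off inducible HBV-producing line, induced to replicate HBV and then treated with serially diluted compound. After 3 days, intracellular HBV DNA quantified by real-time PCR with HBV-specific primers and probe.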

[2] = Cytotoxicity in HepG2.117 cells, ATPlite Luminescence Assay; format: cell-based, human; settings: human, incubated for 3 days, mean value, read-out: TOX-HepG2.117 CC50 (μM, mean value)
Experimental: Cytotoxicity of the compounds was tested using HepG2 or HepG2.117 cells, incubated for 3 days in the presence of compounds. The viability of the cells was assessed using the PERKIN ELMER ATPlite Luminescence Assay System.”

| SMILES | EC50 [1] | CC50 at 3 days [2] |
| --- | --- | --- |
| C[C@@H]1Cc2nn3c(c2CN1C(=O)c1ccc(OC(F)F)c(Cl)c1)C(=O)N(Cc1ccccn1)CC3 [Example C113] | 0.257 µM | > 50 µM |
| Cc1ccc(F)c2[nH]c(C(=O)N3Cc4c(nn5c4C(=O)N(Cc4ccccn4)CC5)C[C@H]3C)cc12 [Example C114] | 0.048 µM | 30.9 µM |
| C[C@@H]1Cc2nn3c(c2CN1C(=O)c1ccc(C(F)(F)F)cc1)C(=O)N(Cc1ccccn1)CC3 [Example C115] | 0.265 µM | > 50 µM |
| C[C@@H]1Cc2nn3c(c2CN1C(=O)c1cc2c(Cl)cc(F)cc2[nH]1)C(=O)N(Cc1ccccn1)CC3 [Example C116] | 0.015 µM | 12.4 µM |
| C[C@@H]1Cc2nn3c(c2CN1C(=O)c1cc2c(Cl)ccc(F)c2[nH]1)C(=O)N(Cc1ccccn1)CC3 [Example C117] | 0.119 µM | 18.2 µM |
| C[C@@H]1Cc2nn3c(c2CN1C(=O)c1cc2c(C(F)F)c(F)ccc2[nH]1)C(=O)N(Cc1ccccn1)CC3 [Example C124] | 0.011 µM | 26.7 µM |
| C[C@@H]1Cc2nn3c(c2CN1C(=O)c1cc2c(C(F)(F)F)c(F)ccc2[nH]1)C(=O)N(Cc1ccccn1)CC3 [Example C125] | 0.037 µM | > 50 µM |
| CC(c1ccc(OC(F)(F)F)cc1)N1CCn2nc3c(c2C1=O)CN(C(=O)c1ccc(Cl)c(Cl)c1)[C@H](C)C3 (stereo partly shown) [Example C127] | 0.133 µM | 15.7 µM |
| CC(c1ccc(F)nc1)N1CCn2nc3c(c2C1=O)CN(C(=O)c1ccc(Cl)c(Cl)c1)[C@H](C)C3 (stereo partly shown) [Example C128] | 0.081 µM | > 50 µM |
| CC(c1ccccc1C#N)N1CCn2nc3c(c2C1=O)CN(C(=O)c1ccc(Cl)c(Cl)c1)[C@H](C)C3 (stereo partly shown) [Example C129] | 0.143 µM | > 50 µM |
| CC(c1ccc(Cl)nc1)N1CCn2nc3c(c2C1=O)CN(C(=O)c1ccc(Cl)c(Cl)c1)[C@H](C)C3 (stereo partly shown) [Example C130] | 0.082 µM | 33.7 µM |
| COc1cccc(C(C)N2CCn3nc4c(c3C2=O)CN(C(=O)c2ccc(Cl)c(Cl)c2)[C@H](C)C4)c1 (stereo partly shown) [Example C131] | 0.038 µM | 19.6 µM |
| C[C@@H]1Cc2nn3c(c2CN1C(=O)c1ccc(Cl)c(Cl)c1)C(=O)N(Cc1cncc(Cl)c1)CC3 [Example C132] | 0.061 µM | > 50 µM |
| C[C@@H]1Cc2nn3c(c2CN1C(=O)c1ccc(Cl)c(Cl)c1)C(=O)N(Cc1nccn1C(F)F)CC3 [Example C133] | 0.332 µM | > 50 µM |
| CCCn1c(C)nnc1CN1CCn2nc3c(c2C1=O)CN(C(=O)c1ccc(Cl)c(Cl)c1)[C@H](C)C3 [Example C134] | > 2.5 µM | > 50 µM |
| C[C@@H]1Cc2nn3c(c2CN1C(=O)c1ccc(Cl)c(Cl)c1)C(=O)N(Cc1ccn(CC(F)(F)F)n1)CC3 [Example C135] | 0.1 µM | > 50 µM |
| Cc1nnc(CN2CCn3nc4c(c3C2=O)CN(C(=O)c2ccc(Cl)c(Cl)c2)[C@H](C)C4)n1C [Example C136] | > 2.5 µM | > 50 µM |
| CC(C)n1ccc(CN2CCn3nc4c(c3C2=O)CN(C(=O)c2ccc(Cl)c(Cl)c2)[C@H](C)C4)n1 [Example C137] | 0.056 µM | > 50 µM |
| Cc1cnc(CN2CCn3nc4c(c3C2=O)CN(C(=O)c2ccc(Cl)c(Cl)c2)[C@H](C)C4)o1 [Example C138] | 0.061 µM | > 50 µM |
| Cc1cncc(CN2CCn3nc4c(c3C2=O)CN(C(=O)c2ccc(Cl)c(Cl)c2)[C@H](C)C4)c1 [Example C139] | 0.04 µM | > 50 µM |
| Cc1cc(CN2CCn3nc4c(c3C2=O)CN(C(=O)c2ccc(Cl)c(Cl)c2)[C@H](C)C4)no1 [Example C141] | 0.056 µM | > 50 µM |
| Cc1noc(C)c1CN1CCn2nc3c(c2C1=O)CN(C(=O)c1ccc(Cl)c(Cl)c1)[C@H](C)C3 [Example C142] | 0.268 µM | > 50 µM |
| C[C@@H]1Cc2nn3c(c2CN1C(=O)c1ccc(Cl)c(Cl)c1)C(=O)N(Cc1noc(C2CC2)n1)CC3 [Example C143] | 0.16 µM | > 50 µM |
| C[C@@H]1Cc2nn3c(c2CN1C(=O)c1ccc(Cl)c(Cl)c1)C(=O)N(Cc1ncnn1C)CC3 [Example C144] | > 2.5 µM | > 50 µM |

| SMILES | EC50 [1] | CC50 at 3 days [2] |
| --- | --- | --- |
| Cc1cc(CN2CCn3nc4c(c3C2=O)CN(C(=O)c2ccc(Cl)c(Cl)c2)[C@H](C)C4)on1 [Example C145] | 0.106 µM | > 50 µM |
| Cc1nonc1CN1CCn2nc3c(c2C1=O)CN(C(=O)c1ccc(Cl)c(Cl)c1)[C@H](C)C3 [Example C146] | 1.79 µM | > 50 µM |
| C[C@@H]1Cc2nn3c(c2CN1C(=O)c1ccc(Cl)c(Cl)c1)C(=O)N(Cc1cnn(C)c1)CC3 [Example C147] | 0.054 µM | > 50 µM |
| Cc1noc(CN2CCn3nc4c(c3C2=O)CN(C(=O)c2ccc(Cl)c(Cl)c2)[C@H](C)C4)n1 [Example C148] | 0.385 µM | > 50 µM |
| Cc1nc(C)c(CN2CCn3nc4c(c3C2=O)CN(C(=O)c2ccc(Cl)c(Cl)c2)[C@H](C)C4)o1 [Example C149] | 0.059 µM | > 50 µM |
| Cc1ncsc1CN1CCn2nc3c(c2C1=O)CN(C(=O)c1ccc(Cl)c(Cl)c1)[C@H](C)C3 [Example C150] | 0.075 µM | > 50 µM |
| Cc1nc(CN2CCn3nc4c(c3C2=O)CN(C(=O)c2ccc(Cl)c(Cl)c2)[C@H](C)C4)no1 [Example C151] | 0.42 µM | > 50 µM |
| Cc1cccnc1CN1CCn2nc3c(c2C1=O)CN(C(=O)c1ccc(Cl)c(Cl)c1)[C@H](C)C3 [Example C152] | 0.145 µM | > 50 µM |
| C[C@@H]1Cc2nn3c(c2CN1C(=O)c1ccc(Cl)c(Cl)c1)C(=O)N(Cc1cncc(F)c1)CC3 [Example C153] | 0.082 µM | > 50 µM |
| Cc1cc(F)ccc1CN1CCn2nc3c(c2C1=O)CN(C(=O)c1ccc(Cl)c(Cl)c1)[C@H](C)C3 [Example C154] | 0.071 µM | 9.53 µM |
| C[C@@H]1Cc2nn3c(c2CN1C(=O)c1ccc(Cl)c(Cl)c1)C(=O)N(Cc1cn(C)nc1C(F)F)CC3 [Example C155] | 0.083 µM | > 50 µM |
| Cc1nc(CN2CCn3nc4c(c3C2=O)CN(C(=O)c2ccc(Cl)c(Cl)c2)[C@H](C)C4)co1 [Example C156] | 0.174 µM | > 50 µM |
| Cc1cc(CN2CCn3nc4c(c3C2=O)CN(C(=O)c2ccc(Cl)c(Cl)c2)[C@H](C)C4)nn1C [Example C157] | 0.02 µM | > 50 µM |
| Cc1nnc(CN2CCn3nc4c(c3C2=O)CN(C(=O)c2ccc(Cl)c(Cl)c2)[C@H](C)C4)n1C1CC1 [Example C158] | 2.38 µM | > 50 µM |
| C[C@@H]1Cc2nn3c(c2CN1C(=O)c1ccc(Cl)c(Cl)c1)C(=O)N(Cc1ncccc1C(F)(F)F)CC3 [Example C159] | 0.979 µM | 36 µM |
| Cc1ncc(CN2CCn3nc4c(c3C2=O)CN(C(=O)c2ccc(Cl)c(Cl)c2)[C@H](C)C4)s1 [Example C160] | 0.029 µM | > 50 µM |
| C[C@@H]1Cc2nn3c(c2CN1C(=O)c1ccc(Cl)c(Cl)c1)C(=O)N(Cc1cc(Cl)cc(C#N)c1)CC3 [Example C161] | 0.051 µM | > 50 µM |
| Cc1nc(CN2CCn3nc4c(c3C2=O)CN(C(=O)c2ccc(Cl)c(Cl)c2)[C@H](C)C4)cs1 [Example C162] | 0.082 µM | > 50 µM |
| COc1ccc(CN2CCn3nc4c(c3C2=O)CN(C(=O)c2ccc(Cl)c(Cl)c2)[C@H](C)C4)cc1C#N [Example C163] | 0.098 µM | > 50 µM |
| CC(C)Oc1ccc(CN2CCn3nc4c(c3C2=O)CN(C(=O)c2ccc(Cl)c(Cl)c2)[C@H](C)C4)cc1 [Example C164] | 0.039 µM | 4.29 µM |
| C[C@@H]1Cc2nn3c(c2CN1C(=O)c1ccc(Cl)c(Cl)c1)C(=O)N(Cc1nnn(C)c1C(F)(F)F)CC3 [Example C165] | 0.676 µM | > 50 µM |
| COc1cccc(F)c1CN1CCn2nc3c(c2C1=O)CN(C(=O)c1ccc(Cl)c(Cl)c1)[C@H](C)C3 [Example C166] | 0.034 µM | 29.1 µM |
| C[C@@H]1Cc2nn3c(c2CN1C(=O)c1ccc(Cl)c(Cl)c1)C(=O)N(Cc1ccncc1C(F)F)CC3 [Example C167] | 0.277 µM | > 50 µM |
